The text below walks through data of PubChem BioAssay (NCI).

The structures appear in SMILES notation.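 Step 1: Grow cells in 96-well plates. Step 2: Expose to compound for 48 hours at 5 concentrations. Step 3: Interpolate endpoints linearly; if unreached, use highest concentration. TGI is the concentration that stops growth completely.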

Assay in all cases: DTP human tumour cell line panel, 48 h
The subject of experiment [1] is LOX IMVI melanoma.
In experiment [2] the test system is DMS 114 small cell lung.
Experiment [3] has as its system SK-MEL-2 melanoma.
Experiment [4] concerns RPMI-8226 leukemia.
The test system of experiment [5] is NCI-H226 lung.
Experiment [6] relates to M19-MEL melanoma.
The test system of experiment [7] is SF-539 CNS.
Experiment [8] deals with DMS 273 small cell lung.
Experiment [9] relates to SNB-78 CNS.
For experiment [10], the system named is SW-620 colon.
In experiment [11] the test system is OVCAR-3 ovarian.

With `N/C(=N\C(=S)N1CCCCC1)N1CCCCC1`, the TGI in [1], in [2], in experiment [3], in experiment [4], in [5] and in experiment [6] was greater than 100 µM each time. Also, the TGI in experiment [7], in [8], in [9] and in [10] was greater than 100 µM in each case.

For `COc1ccc(-c2c(N)[n+]([O-])c3cc(C)c(C)cc3[n+]2[O-])cc1OC`, the TGI in experiment [1] was greater than 100 µM; in [2] it was 67.8 µM; in experiment [3] it was greater than 100 µM; in experiment [4], greater than 100 µM; in experiment [5], greater than 100 µM; in experiment [11], greater than 100 µM. Besides, the TGI in [6], in experiment [7], in [8], in experiment [9] and in experiment [10] was greater than 100 µM throughout.

Take `O=C(O)C1Cc2nc[nH]c2CN1` (configuration not stated): the TGI in experiment [1], in experiment [2], in experiment [3], in [4], in [5] and in experiment [11] was greater than 100 µM in each case. The TGI in experiment [6], in experiment [7], in experiment [8], in experiment [9] and in experiment [10] was greater than 100 µM throughout.

Take `Nc1nc(N)c(-c2ccccc2)c(C(=O)Nc2ccc(Cl)c(Cl)c2)n1`: the TGI in [1], in experiment [2], in [3], in [4], in experiment [5] and in [11] was greater than 100 µM in each case. In addition, the TGI in [6], in experiment [7], in [8], in experiment [9] and in experiment [10] was greater than 100 µM throughout.

As for `CC1CC2C3CC(F)C4=CC(=O)C=CC4(C)C3(F)C(O)CC2(C)C1(O)C(=O)CO` (configuration not stated), the TGI in [1], in [2], in [3], in experiment [4], in [5] and in [11] was greater than 100 µM each time. Moreover, the TGI in experiment [6], in experiment [7], in experiment [8], in experiment [9] and in [10] was greater than 100 µM throughout.

For the compound `Cc1cccc(NC(=O)CC2C(=O)Nc3ccccc3S2(=O)=O)c1C` (configuration not stated), the TGI is 51.6 µM in [2]; 75.4 µM in experiment [3]; 58.3 µM in [5]; 61.2 µM in [11]; greater than 100 µM in experiment [6]; 37.6 µM in [7]. For the same compound, the TGI in [8] is greater than 100 µM; in experiment [9], 77.3 µM; in experiment [10], 84.2 µM.

In the case of `Cc1ccccc1NC(=O)C(=O)Cc1nc2ccccc2s1`, the TGI in [1], in experiment [2], in [3], in experiment [5], in experiment [11] and in [6] was greater than 100 µM each time. The TGI in experiment [7], in experiment [8], in [9] and in [10] was greater than 100 µM each time.

Take `O=C(O)/C(O)=C1/C=C(c2ccccc2)c2ccccc21`: the TGI in [1] was 36.1 µM; in experiment [2], 37.6 µM; in experiment [3] it was 33.1 µM; in [4] it was 56.8 µM; in [5], 59.6 µM; in experiment [6] it was 60.1 µM. Further, the TGI in experiment [7] is 82.3 µM; in experiment [8], 33.1 µM; in experiment [9], greater than 100 µM; in experiment [10] it was 37.7 µM.

For the compound `C=C(C)C1CC[C@]2(C(=O)O)CCC3(C)[C@H](CCC4[C@@]5(C)CC[C@H](OC6OC(CO)C(O)C6OC6OC(C)C(O)C(O)C6O)[C@@](C)(CO)C5CC[C@]43C)C12` (some centres not stated), the TGI in [1], in [2], in [3], in experiment [5], in [11] and in [6] was greater than 100 µM throughout. For the same compound, the concentration for total growth inhibition (TGI) in experiment [7], in [8], in [9] and in experiment [10] was greater than 100 µM each time.

Turning to `CSc1s[s+]c(SC)c1[O-]`, the TGI in experiment [2] is 34.6 µM; in experiment [3], greater than 100 µM; in [5], greater than 100 µM; in experiment [11], 67.2 µM; in experiment [6], 29.5 µM; in [7], 43.2 µM. For the same compound, the TGI in experiment [8] is greater than 100 µM; in experiment [9] it was greater than 100 µM; in experiment [10], 31.7 µM.

For the compound `CC1CC(=O)C(C(O)CC2CC(=O)N(c3ccccc3)C(=O)C2)C(C)C1` (configuration not stated), the TGI in experiment [1], in experiment [2], in [4], in [5], in experiment [11] and in experiment [6] was greater than 100 µM throughout. In addition, the TGI in experiment [7], in experiment [8], in [9] and in [10] was greater than 100 µM throughout.

For orientation: TGI means the concentration at which net growth stops.
